In PMC9015526, “Mass Spectrometric Assays Reveal Discrepancies in Inhibition Profiles for the SARS‐CoV‐2 Papain‐Like Protease” (Chemmedchem, 2022):
“And” between values parts separate entries of the source, which are not always exact repeats. Equal entries are not always repeated. Where two headings read alike, the source gives them in different places.

How the values were obtained:
[1] = target: T1, SARS‐CoV‐2 PL^pro (Severe acute respiratory syndrome coronavirus 2, UniProt P0DTD1); conditions: read-out: Reported IC50, cited from earlier work
[2] = target: T1, SARS‐CoV‐2 PL^pro; assay: biochemical
[3] = target: T1, SARS‐CoV‐2 PL^pro; conditions: Fluorescence, cited from earlier work
[4] = 0.2 μM PL^pro, 2.0 μM nsp2/3 peptide 2, 50 mM Tris pH 8.0, n=2, mean±SD, read-out: SPE‐MS IC50

Compound | PL^pro inhibition in SPE‐MS assay (in words) [2] | IC50 ([2]; SPE‐MS IC50) | other results
CN(C)C/C=C/C(=O)Nc1cc2c(Nc3ccc(F)c(Cl)c3)ncnc2cc1O[C@H]1CCOC1 [afatinib] | inactive | > 50 µM | IC50 [1]: 11 to 16 µM
C[C@H]1COC2=C1C(=O)C(=O)c1c2ccc2c1CCCC2(C)C [cryptotanshinone] | did not, at least efficiently, inhibit |  | 
Cc1cc(O)c2c(=O)c3c(O)cc(O)c4c5c(O)cc(O)c6c(=O)c7c(O)cc(C)c8c1c2c(c34)c(c78)c65 [Hypericin] | did not inhibit | > 50 µM | 
COc1cc2ncnc(Nc3ccc(F)c(Cl)c3)c2cc1NC(=O)/C=C/CN1CCCCC1 [dacomitinib] | inactive |  | IC50 ([1]; FRET‐based assays, ref 8b): 3 to 5 µM; IC50 [2, 4]: > 50 µM
CC(C)(F)C[C@H](N[C@@H](c1ccc(-c2ccc(S(C)(=O)=O)cc2)cc1)C(F)(F)F)C(=O)NC1(C#N)CC1 [MK‐0822, odanacatib] | does not inhibit |  | IC50 [2, 4]: > 50 µM
Cc1ccc(-n2sc3ccccc3c2=O)cc1 [PBIT, 2‐(para‐tolyl)benzo[d]isothiazol‐3(2H)‐one] |  | ~0.3 µM and 0.3 µM | 
CCOC(=O)C[C@H](NC(=O)[C@H](C)NC(=O)[C@@H](NC(=O)OCc1ccccc1)C(C)C)C(=O)COC(=O)c1c(Cl)cccc1Cl [SDZ‐224015] | does not inhibit |  | IC50 [2, 4]: > 50 µM
CC(=O)Nc1ccc(C)c(C(=O)N[C@H](C)c2cccc3ccccc23)c1 [PL^pro inhibitor 6] |  | ~12.5 µM and 12.5 µM | 
Cbz‐RLRGG‐Amc |  |  | Km ([3]; ref 14): 6.9 ± 1.4 µM; Km ([3]; ref 18): 70.9 ± 10.2 µM
COCCn1c2c([n+](Cc3cnccn3)c1C)C(=O)c1ccccc1C2=O [YM‐155, sepantronium bromide] |  | > 50 µM | 
CC(=O)OC[C@H]1O[C@@H]([S-])[C@H](OC(C)=O)[C@@H](OC(C)=O)[C@@H]1OC(C)=O.CCP(CC)CC.[Au+] [auranofin] | potently inhibit |  | 
